Tests used:
[1] = molecular target: SARS-CoV-2 Papain-like (PLpro) protease (Severe acute respiratory syndrome coronavirus 2, UniProt P0DTD1); test: SARS-CoV-2 Papain-like (PLpro) protease biochemical enzyme inhibition assay (ubiquitin-fluorophore substrate, Ub-R110); conditions: Ub-R110 substrate; run in duplicate; read-out: PLpro IC50
[2] = test system: SARS-CoV-2 replicon; test: microbe, parasite or virus in culture; format: cell-based; conditions: Severe acute respiratory syndrome coronavirus 2, Huh-7

| SMILES | IC50 [1] [µM] | EC50 [2] [µM] |
| --- | --- | --- |
| Cc1nn(C)c(C)c1-c1cc(F)c(F)c(C2(NC(=O)c3ccccc3CNC(=O)C(=O)NCC#Cc3nccs3)CC2)c1 [Example 297] | < 0.1 | < 1 |
| Cc1nn(C)c(C)c1-c1cc(C2(NC(=O)c3ccccc3CNC(=O)C(=O)N[C@@H](C)C#Cc3nccs3)CC2)cc2ccccc12 [Example 298] | < 0.1 | < 1 |
| Cc1nn(C)c(C)c1-c1cc(C2(NC(=O)c3ccccc3CNC(=O)C(=O)NCC#Cc3nccs3)CC2)cc2ccccc12 [Example 299] | < 0.1 | < 1 |
| Cc1nn(C)c(C)c1-c1cc(C2(NC(=O)c3ccccc3CNC(=O)C(=O)NCC#Cc3nccs3)CC2)c2ccccc2c1 [Example 300] | < 0.1 | < 1 |
| N#Cc1cc(-c2cnn(C3CC3)c2)c(F)c(C2(NC(=O)c3ccccc3CNC(=O)C(=O)NCC#Cc3nccs3)CC2)c1 [Example 301] | < 0.1 | < 1 |
| C#CCNC(=O)C(=O)NCc1ccccc1C(=O)NC1(c2cc(-c3cnn(C4CC4)c3)cc(Cl)c2F)CC1 [Example 302] | < 0.1 | < 1 |
| C#CCNC(=O)C(=O)NCc1ccccc1C(=O)NC1(c2cc(-c3cccs3)cc(Cl)c2F)CC1 [Example 303] | < 0.1 | < 1 |
| N#CCNC(=O)C(=O)NCc1ccccc1C(=O)NC1(c2cc(-c3cccs3)cc(Cl)c2F)CC1 [Example 304] | < 0.1 | 1 to 10 |
| O=C(NCC#Cc1nccs1)C(=O)NCc1ccccc1C(=O)NC1(c2cc(-c3ccn(C4CC4)n3)cc(F)c2F)CC1 [Example 305] | < 0.1 | < 1 |
| N#CCNC(=O)C(=O)NCc1ccccc1C(=O)NC1(c2cc(-c3ccn(C4CC4)n3)cc(F)c2F)CC1 [Example 306] | < 0.1 | < 1 |
| N#CCNC(=O)C(=O)NCc1ccccc1C(=O)NC1(c2cc(-c3cnn(C4CC4)c3)c3ccccc3c2)CC1 [Example 307] | < 0.1 | 1 to 10 |
| N#CCNC(=O)C(=O)NCc1ccccc1C(=O)NC1(c2cccc3c(C#N)cccc23)CC1 [Example 308] | < 0.1 | < 1 |
| N#CCNC(=O)C(=O)NCc1ccccc1C(=O)NC1(c2cccc3c(Br)cccc23)CC1 [Example 310] | < 0.1 | < 1 |
| C#CCNC(=O)C(=O)NCc1ccccc1C(=O)NC1(c2cc(F)cc(-c3cnn(C4CC4)c3)c2F)CC1 [Example 311] | < 0.1 | < 1 |
| N#CCNC(=O)C(=O)NCc1ccccc1C(=O)NC1(c2cc(F)cc(-c3cnn(C4CC4)c3)c2F)CC1 [Example 312] | < 0.1 | 1 to 10 |
| O=C(NCC#Cc1nccs1)C(=O)NCc1ccccc1C(=O)NC1(c2cc(F)cc(-c3cnn(C4CC4)c3)c2F)CC1 [Example 313] | < 0.1 | < 1 |
| CN1C[C@H](F)C[C@H]1COc1ccc(CNC(=O)C(=O)NCC#N)c(C(=O)NC2(c3cccc4ccccc34)CC2)c1 [Example 318] | < 0.1 | < 1 |
| CC1(O)CN(c2cc(C3(NC(=O)c4ccccc4CNC(=O)C(=O)NCC#N)CC3)c3ccccc3c2)C1 [Example 319] | < 0.1 | 1 to 10 |
| N#CCNC(=O)C(=O)NCc1ccc(OCCO)cc1C(=O)NC1(c2cccc3ccccc23)CC1 [Example 320] | < 0.1 | < 1 |
| NC(=O)C(=O)NCc1ccccc1C(=O)NC1(c2cc(-c3cnn(C4CC4)c3)cc3ccccc23)CC1 [Example 321] | < 0.1 | 1 to 10 |

| SMILES | IC50 [1] [µM] | EC50 [2] [µM] |
| --- | --- | --- |
| CN1C[C@H](F)CC1COc1ccc(CNC(=O)C(=O)NCC#N)c(C(=O)NC2(c3cc(-c4cnn(C5CC5)c4)cc4ccccc34)CC2)c1 (stereo partly shown) [Example 322] | < 0.1 | < 1 |
| C[C@@H](C#Cc1nccs1)NC(=O)C(=O)NCc1ccccc1C(=O)NC1(c2ccc3nn(CC(F)(F)F)cc3c2)CC1 [Example 323] | < 0.1 | < 1 |
| COCC1CCCN1c1cc(C2(NC(=O)c3ccccc3CNC(=O)C(=O)NCC#N)CC2)c2ccccc2c1 (stereo not shown) [Example 324] | < 0.1 | 1 to 10 |
| CN1CC(COc2ccc(CNC(=O)C(=O)NCC#N)c(C(=O)NC3(c4cccc5ccccc45)CC3)c2)C1 [Example 326] | < 0.1 | 1 to 10 |
| C[C@H](NC(=O)c1ccccc1CNC(=O)C(=O)NCC#N)c1cc(C(F)(F)F)nc2ccccc12 [Example 327] | < 0.1 | 1 to 10 |
| CC(=O)N1CCN(c2cc(C3(NC(=O)c4ccccc4CNC(=O)C(=O)NCC#N)CC3)c3ccccc3c2)CC1 [Example 328] | < 0.1 | 1 to 10 |
| N#CN1CCC(F)(C(=O)NCc2ccccc2C(=O)NC2(c3cc(Br)cc4ccccc34)CC2)C1 (stereo not shown) [Example 329] | < 0.1 | < 1 |
| N#CCNC(=O)C(=O)NCc1ccccc1C(=O)NC1(c2cc(N3CC(O)C3)cc3ccccc23)CC1 [Example 330] | < 0.1 | 1 to 10 |
| CN1CCC1COc1ccc(CNC(=O)C(=O)NCC#N)c(C(=O)NC2(c3cccc4ccccc34)CC2)c1 (stereo not shown) [Example 331] | < 0.1 | < 1 |
| C[C@@H](C#Cc1nccs1)NC(=O)C(=O)NCc1ccccc1C(=O)NC1(c2ccc3nn(C)cc3c2F)CC1 [Example 333] | < 0.1 | < 1 |
| COc1cc(C2(NC(=O)c3ccccc3CNC(=O)C(=O)N[C@@H](C)C#Cc3ccc(C#N)cc3F)CC2)cc2cn(C3CC3)nc12 [Example 334] | < 0.1 | < 1 |
| C[C@@H](C#Cc1nccs1)NC(=O)C(=O)NCc1ccccc1C(=O)NC1(c2cc(Cl)c3nn(C4CC4)cc3c2)CC1 [Example 335] | < 0.1 | < 1 |
| COc1cc(C2(NC(=O)c3ccccc3CNC(=O)C(=O)N[C@@H](C)C#Cc3nccs3)CC2)cc2cn(C3CC3)nc12 [Example 336] | < 0.1 | < 1 |
| Cn1cc2cc(C3(NC(=O)c4ccccc4CNC(=O)C(=O)NCC#Cc4nccs4)CC3)ccc2n1 [Example 337] | < 0.1 | < 1 |
| C#CCNC(=O)C(=O)NCc1ccccc1C(=O)NC1(c2ccc3nn(C)cc3c2)CC1 [Example 338] | < 0.1 | < 1 |
| Cn1cc2cc(C3(NC(=O)c4ccccc4CNC(=O)C(=O)NCC#N)CC3)ccc2n1 [Example 341] | 0.1 to 1 | > 10 |
| C#CCNC(=O)C(=O)NCc1ccccc1C(=O)NC1(c2cccc3nn(C)cc23)CC1 [Example 342] | < 0.1 | < 1 |
| C#CCNC(=O)C(=O)NCc1ccccc1C(=O)NC1(c2cc(OC)c3nn(C4CC4)cc3c2)CC1 [Example 343] | < 0.1 | < 1 |
| C#CCNC(=O)C(=O)NCc1ccccc1C(=O)NC1(c2ccc3c(cnn3C)c2)CC1 [Example 344] | < 0.1 | < 1 |
| Cn1ncc2cc(C3(NC(=O)c4ccccc4CNC(=O)C(=O)NCC#Cc4nccs4)CC3)ccc21 [Example 345] | < 0.1 | < 1 |

| SMILES | IC50 [1] [µM] | EC50 [2] [µM] |
| --- | --- | --- |
| C[C@@H](C#Cc1nccs1)NC(=O)C(=O)NCc1ccccc1C(=O)NC1(c2ccc3c(cnn3C)c2)CC1 [Example 346] | < 0.1 | < 1 |
| N#CCNC(=O)C(=O)NCc1ccccc1C(=O)NC1(c2cc(-c3cccs3)cc3ccccc23)CC1 [Example 347] | < 0.1 | < 1 |
| COc1ccc2cccc(C3(NC(=O)c4ccccc4CNC(=O)C(=O)NCC#N)CC3)c2c1 [Example 348] | < 0.1 | 1 to 10 |
| N#CCNC(=O)C(=O)NCc1ccccc1C(=O)NC1(c2cc(-c3cncs3)cc3ccccc23)CC1 [Example 349] | < 0.1 | < 1 |
| N#CCNC(=O)C(=O)NCc1ccccc1C(=O)NC1(c2cc(-c3ccc(CO)s3)cc3ccccc23)CC1 [Example 350] | < 0.1 | < 1 |
| COc1ccc(-c2cc(C3(NC(=O)c4ccccc4CNC(=O)C(=O)NCC#N)CC3)c3ccccc3c2)s1 [Example 351] | < 0.1 | < 1 |
| COCc1ccc(-c2cc(C3(NC(=O)c4ccccc4CNC(=O)C(=O)NCC#N)CC3)c3ccccc3c2)s1 [Example 352] | < 0.1 | < 1 |
| CC(C)(O)Cn1cc(-c2cc(C3(NC(=O)c4ccccc4CNC(=O)C(=O)NCC#N)CC3)c3ccccc3c2)cn1 [Example 353] | < 0.1 | < 1 |
| CC(C)(O)c1ccc(-c2cc(C3(NC(=O)c4ccccc4CNC(=O)C(=O)NCC#N)CC3)c3ccccc3c2)s1 [Example 354] | < 0.1 | < 1 |
| CN(C)S(=O)(=O)n1cc(-c2cc(C3(NC(=O)c4ccccc4CNC(=O)C(=O)NCC#N)CC3)c3ccccc3c2)cn1 [Example 355] | < 0.1 | < 1 |
| CS(=O)(=O)n1cc(-c2cc(C3(NC(=O)c4ccccc4CNC(=O)C(=O)NCC#N)CC3)c3ccccc3c2)cn1 [Example 356] | < 0.1 | 1 to 10 |
| N#CCNC(=O)C(=O)NCc1ccccc1C(=O)NC1(c2cc(-c3cnn(C4CC4)c3)cc3ccccc23)CC1 [Example 357] | < 0.1 | < 1 |
| COC(=O)/C=C/CNC(=O)C(=O)NCc1cc(F)c(F)cc1C(=O)N[C@H](C)c1cccc2ccccc12 [Example 362] | < 0.1 | < 1 |
| C[C@@H](NC(=O)c1cc(F)c(F)cc1CNC(=O)C(=O)NCC#N)c1cccc2ccccc12 [Example 363] | 0.1 to 1 | < 1 |
| N#CCNC(=O)C(=O)NCc1cnccc1C(=O)NC1(c2cccc3ccccc23)CC1 [Example 366] | < 0.1 | 1 to 10 |
| N#CCNC(=O)C(=O)NCc1ccccc1C(=O)NC1(c2ccc3sc4ccccc4c3c2)CC1 [Example 369] | < 0.1 | 1 to 10 |
| N#CCNC(=O)C(=O)NCc1ccccc1C(=O)NC1(c2cccc(C(F)(F)F)c2Cl)CC1 [Example 370] | 0.1 to 1 | 1 to 10 |
| N#CCNC(=O)C(=O)NCc1ccccc1C(=O)NC1(c2cccc(-c3ccc(F)cc3)c2Cl)CC1 [Example 380] | 0.1 to 1 | > 10 |
| C#CCNC(=O)C(=O)NCc1ccccc1C(=O)NC1(c2cccc(-c3cnn(C4CC4)c3)c2Cl)CC1 [Example 381] | < 0.1 | < 1 |

From US20240327334A1, “Covalent Inhibitors As Antiviral Agents” (Enanta Pharmaceuticals, Inc., priority 2022, published 2024)
